Structures can show the parent of a compound that is named as a salt.
These compounds were tested against T1, c-Met kinase (recombinant c-Met) (Homo sapiens, UniProt P08581) (assay: In vitro kinase assay I (homogeneous time-resolved fluorescence tyrosine kinase assay)).
T1 construct: 0.27 nM recombinant c-Met
Type: biochemical
Method in brief: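 Biotinylated peptide (0.5 μM) phosphorylated by 0.2 nM recombinant c-Met with 50 μM MgATP, 60 min at room temperature, pH 7.4, 5% DMSO. EDTA stop; HTRF read with Eu-anti-phosphotyrosine antibody and streptavidin-APC. IC50 from 4-parameter logistic fit.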

T1 sequence (P08581 25-1390): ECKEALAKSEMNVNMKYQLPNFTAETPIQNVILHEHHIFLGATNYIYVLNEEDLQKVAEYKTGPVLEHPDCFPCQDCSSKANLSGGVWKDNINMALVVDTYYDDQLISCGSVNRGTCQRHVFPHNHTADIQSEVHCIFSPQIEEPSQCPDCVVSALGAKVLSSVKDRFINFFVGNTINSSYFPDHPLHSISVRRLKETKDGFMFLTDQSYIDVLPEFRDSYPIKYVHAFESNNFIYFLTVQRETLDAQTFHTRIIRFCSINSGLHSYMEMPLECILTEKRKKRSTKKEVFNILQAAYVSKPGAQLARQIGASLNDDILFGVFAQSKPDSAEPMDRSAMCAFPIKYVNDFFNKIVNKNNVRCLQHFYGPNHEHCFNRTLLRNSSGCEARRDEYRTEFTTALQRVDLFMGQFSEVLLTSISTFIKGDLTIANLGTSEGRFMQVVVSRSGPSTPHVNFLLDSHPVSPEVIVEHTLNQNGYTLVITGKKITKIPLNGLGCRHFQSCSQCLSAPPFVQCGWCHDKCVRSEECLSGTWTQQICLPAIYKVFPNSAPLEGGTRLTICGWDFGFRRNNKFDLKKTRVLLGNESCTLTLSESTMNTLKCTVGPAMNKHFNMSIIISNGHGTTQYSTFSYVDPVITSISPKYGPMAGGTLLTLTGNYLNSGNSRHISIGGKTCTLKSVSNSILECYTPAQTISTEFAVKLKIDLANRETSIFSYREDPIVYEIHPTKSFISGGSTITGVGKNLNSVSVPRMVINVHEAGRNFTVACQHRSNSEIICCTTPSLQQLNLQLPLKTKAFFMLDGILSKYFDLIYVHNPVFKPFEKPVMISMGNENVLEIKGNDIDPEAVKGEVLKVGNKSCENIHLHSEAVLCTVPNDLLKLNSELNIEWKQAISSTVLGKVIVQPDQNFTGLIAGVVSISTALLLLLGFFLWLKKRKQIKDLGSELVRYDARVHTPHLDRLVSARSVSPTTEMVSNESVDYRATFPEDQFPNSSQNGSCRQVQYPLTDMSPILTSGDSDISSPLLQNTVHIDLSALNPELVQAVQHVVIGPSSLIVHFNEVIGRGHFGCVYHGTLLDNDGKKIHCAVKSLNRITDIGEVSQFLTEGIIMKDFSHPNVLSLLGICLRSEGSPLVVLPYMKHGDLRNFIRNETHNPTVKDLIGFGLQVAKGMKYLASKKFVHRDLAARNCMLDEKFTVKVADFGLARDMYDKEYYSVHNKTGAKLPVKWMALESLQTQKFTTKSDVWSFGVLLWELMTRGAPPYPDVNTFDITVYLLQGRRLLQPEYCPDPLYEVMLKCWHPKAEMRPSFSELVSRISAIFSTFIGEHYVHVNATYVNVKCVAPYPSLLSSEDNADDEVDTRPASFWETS

IC50 [nM] | Compound
< 100 | CC(c1cccc(-c2ncc(O[C@@H]3CCNC[C@H]3F)cn2)c1)c1nn(-c2cnn(C)c2)ccc1=O (single isomer, unassigned) [Example 342, 3-{(1R or S)-1-[3-(5-{[(3R or S, 4R or S)-3-fluoropiperidin-4-yl]oxy}pyrimidin-2-yl)phenyl]ethyl}-1-(1-methyl-1H-pyrazol-4-yl)pyridazin-4(1H)-one]
< 100 | COCCCc1cnc(-c2cccc(Cc3nn(-c4cnn(C)c4)ccc3=O)c2)nc1 [Example 439, 3-{3-[5-(3-methoxypropyl)pyrimidin-2-yl]benzyl}-1-(1-methyl-1H-pyrazol-4-yl)pyridazin-4(1H)-one]
< 100 | CCn1cnc(-c2cccc(Cc3nn(-c4cnn(C)c4)ccc3=O)c2)n1 [Example 708, 3-[3-(1-ethyl-1H-1,2,4-triazol-3-yl)benzyl]-1-(1-methyl-1H-pyrazol-4-yl)pyridazin-4(1H)-one]
< 100 | CCn1cc(-n2ccc(=O)c(C(C)c3cccc(-c4ncc(O)cn4)c3)n2)cn1 (single isomer, unassigned) [Example 258, 1-(1-ethyl-1H-pyrazol-4-yl)-3-{(1R or S)-1-[3-(5-hydroxypyrimidin-2-yl)phenyl]ethyl}pyridazin-4(1H)-one]
< 100 | CCOc1cnc(-c2cccc(C(CC)c3nn(-c4cnn(C)c4)ccc3=O)c2)nc1 (single isomer, unassigned) [Example 206, 3-{(1R or S)-1-[3-(5-ethoxypyrimidin-2-yl)phenyl]propyl}-1-(1-methyl-1H-pyrazol-4-yl)pyridazin-4(1H)-one]
< 100 | CCn1cc(-n2ccc(=O)c(C(C)c3cccc(-c4ncc(-c5cnn(C)c5)cn4)c3)n2)cn1 (single isomer, unassigned) [Example 234, 1-(1-ethyl-1H-pyrazol-4-yl)-3-[(1S or R)-1-{3-[5-(1-methyl-1H-pyrazol-4-yl)pyrimidin-2-yl]phenyl}ethyl]pyridazin-4(1H)-one]
< 100 | Cn1cc(-n2ccc(=O)c(Cc3cccc(-c4ncc(C(=O)NCC5CCCOC5)cn4)c3)n2)cn1 (racemic) [Example 478, rac-2-(3-{[1-(1-methyl-1H-pyrazol-4-yl)-4-oxo-1,4-dihydro-pyridazin-3-yl]methyl}phenyl)-N-tetrahydro-2H-pyran-3-ylmethyl)pyrimidine-5-carboxamide]
< 100 | Cn1cc(-n2ccc(=O)c(Cc3cccc(-c4ncc(OCC5CC5)cn4)c3)n2)cn1 [Example 278, 3-{3-[5-(cyclopropylmethoxy)pyrimidin-2-yl]benzyl}-1-(1-methyl-1H-pyrazol-4-yl)pyridazin-4(1H)-one]
< 100 | CCn1cnc(-c2cccc(Cc3nn(-c4cnn(CCO)c4)ccc3=O)c2)n1 [Example 191, 3-[3-(1-Ethyl-1H-1,2,4-triazol-3-yl)benzyl]-1-[1-(2-hydroxyethyl)-1H-pyrazol-4-yl]pyridazin-4(1H)-one]
< 100 | Cn1cc(-n2ccc(=O)c(Cc3cccc(-c4ncc(-c5cncnc5)cn4)c3)n2)cn1 [Example 411, 3-[3-(5,5′-bipyrimidin-2-yl)benzyl]-1-(1-methyl-1H-pyrazol-4-yl)pyridazin-4(1H)-one]
< 100 | COC(C)(C)COc1cnc(-c2cccc(C(C)c3nn(-c4ccc(F)c(F)c4)ccc3=O)c2)nc1 (single isomer, unassigned) [Example 251, 1-(3,4-difluorophenyl)-3-[(1S or R)-1-{3-[5-(2-methoxy-2-methylpropoxy)pyrimidin-2-yl]phenyl}ethyl]pyridazin-4(1H)-one]
< 100 | CCn1cc(-n2ccc(=O)c(C(C)c3cccc(-c4ncc(OCc5ccccc5)cn4)c3)n2)cn1 (single isomer, unassigned) [Example 229, 3-((1R or S)-1-{3-[5-(benzyloxy)pyrimidin-2-yl]phenyl}ethyl)-1-(1-ethyl-1H-pyrazol-4-yl)pyridazin-4(1H)-one]

The next lines start with the compound.

Compound | IC50 [nM]
Cn1cc(-n2ccc(=O)c(Cc3cccc(-c4ncc(N5CCCC(C#N)C5)cn4)c3)n2)cn1 (racemic) [Example 446, rac-1-[2-(3-{[1-(1-methyl-1H-pyrazol-4-yl)-4-oxo-1,4-dihydropyridazin-3-yl]methyl}phenyl)pyrimidin-5-yl]piperidine-3-carbonitrile] | < 100
CC(C)COC(=O)Nc1cccc(Cc2nn(-c3cccc(Br)c3)ccc2=O)c1 [Example 69, 2-methylpropyl (3-{[1-(3-bromophenyl)-4-oxo-1,4-dihydropyridazin-3-yl]methyl}phenyl)carbamate] | < 100
Cn1cc(-n2ccc(=O)c(Cc3cccc(NC(=O)OCCO)c3)n2)cn1 [Example 630, 2-Hydroxyethyl(3-{[1-(1-methyl-1H-pyrazol-4-yl)-4-oxo-1,4-dihydropyridazin-3-yl]methyl}phenyl)carbamate] | < 100
Cn1cc(-n2ccc(=O)c(Cc3cccc(-c4ncc(NC(=O)CN5CCCC5=O)cn4)c3)n2)cn1 [Example 463, N-[2-(3-{[1-(1-methyl-1H-pyrazol-4-yl)-4-oxo-1,4-dihydro-pyridazin-3-yl]methyl}phenyl)pyrimidin-5-yl]-2-(2-oxopyrrolidin-1-yl)acetamide] | < 100
CC(C)Cn1cc(-n2ccc(=O)c(Cc3cccc(NC(=O)OCCN4CCOCC4)c3)n2)cn1 [Example 96, 2-morpholin-4-ylethyl [3-({1-[1-(2-methylpropyl)-1H-pyrazol-4-yl]-4-oxo-1,4-dihydropyridazin-3-yl}methyl)phenyl]carbamate] | 100 to 1000
O=C(Nc1cccc(Cc2nn(-c3cc(F)c(F)c(F)c3)ccc2=O)c1)OCC1CCCCC1 [Example 557, cyclohexylmethyl (3-{[4-oxo-1-(3,4,5-trifluorophenyl)-1,4-dihydropyridazin-3-yl]methyl}phenyl)carbamate] | < 100
Cn1cc(-n2ccc(=O)c(Cc3ccc4oc(=O)[nH]c4c3)n2)cn1 [Example 24, 5-{[1-(1-methyl-1H-pyrazol-4-yl)-4-oxo-1,4-dihydropyridazin-3-yl]methyl}-1,3-benzoxazol-2(3H)-one] | 1000 to 3000
CCCOC(=O)Nc1cccc(Cc2nn(-c3cnn(C(C)C)c3)ccc2=O)c1 [Example 104, propyl [3-({1-[1-(1-methylethyl)-1H-pyrazol-4-yl]-4-oxo-1,4-dihydropyridazin-3-yl}methyl)phenyl]carbamate] | < 100
CCOC(=O)c1coc(-c2cccc(Cc3nn(-c4cnn(C)c4)ccc3=O)c2)n1 [Example 674, ethyl 2-(3-{[1-(1-methyl-1H-pyrazol-4-yl)-4-oxo-1,4-dihydropyridazin-3-yl]methyl}phenyl)-1,3-oxazole-4-carboxylate] | 1000 to 3000
Cn1cc(-n2ccc(=O)c(Cc3cccc(-c4ncc(N5CCCC(F)C5)cn4)c3)n2)cn1 (racemic) [Example 468, rac-3-{3-[5-(3-fluoro-piperidin-1-yl)pyrimidin-2-yl]benzyl)-1-(1-methyl-1H-pyrazol-4-yl)pyridazin-4(1H)-one] | < 100
Cn1cc(-n2ccc(=O)c(Cc3cccc(-c4nc[nH]n4)c3)n2)cn1 [Example 186, 1-(1-Methyl-1H-pyrazol-4-yl)-3-[3-(1H-1,2,4-triazol-3-yl)benzyl]pyridazin-4(1H)-one hydrochloride] | < 100
Cc1ccc2c(Cc3nn(-c4cnn(C)c4)ccc3=O)cccc2n1 [Example 44, 1-(1-methyl-1H-pyrazol-4-yl)-3-[(2-methylquinolin-5-yl)methyl]pyridazin-4(1H)-one] | 1000 to 3000

Source: patent publication US20120264735A1 (priority 2009, published 2012)
